“Also recorded” adds a separate entry of the source. One block for each compound: values may come before it.
Legend:
HUVEC cell = system: HUVEC cell; parameters: method as in PMID 24895220; settings: at 500 ng/mL; cited from earlier work
[1] = Pharmacokinetic study after i.v. administration in rats (online SPE HPLC of plasma, two-compartment model); type: in vivo, male Wistar rats; settings: for t1/2 (biological half-life) / K12 (rate constant of transfer from the peripheral compartment into the central compartment) / K21 (rate constant of transfer from the central compartment into the peripheral compartment) / half-life / C0 / clearance / k el / Vd: i.v. bolus, 20 mg/kg; for t1/2 (biological half-life) / half-life / C0 / clearance / k el / Vd: plasma; for K12 (rate constant of transfer from the peripheral compartment into the central compartment) / K21 (rate constant of transfer from the central compartment into the peripheral compartment) / C0 / clearance / k el / Vd: two-compartment model; for half-life / C0 / clearance / k el / Vd: male, Wistar, rat, iv; for half-life: read-out: t1/2 (biological half-life) (converted); for C0: read-out: C0 (initial plasma concentration); for clearance: read-out: Cla (clearance rate of the central compartment) (converted); for k el: read-out: Kel (rate constant of elimination from the central compartment) (converted); for Vd: read-out: Vc (volume of distribution of the central compartment)
Description: Confirmation of calycopterin, xanthomicrol and circimaritin identity was carried out using HPLC analysis of purified compound compared to the material obtained from previous work and also IR spectroscopy. A HPLC method with online solid phase extraction was developed for the analysis of xanthomicrol and calycopterin in biological fluids (Fig. 1) using circimaritin as internal standard (IS). 100 μL of plasma and 10 μL of 500 μg/mL IS were mixed in a 2 mL microcentrifuge tube. 40 μL of 10 mg/mL ZnSO4 was added to the tube and the content was mixed. After addition of 200 μL acetonitrile, the tube was placed in an orbital shaker for 10 min. The samples were subsequently centrifuged at 14000 g for 10 min the supernatant was subjected to online extraction/HPLC analysis as follows:
At the start of every run, the sample injection valve and the sample extraction valve were switched to load position (Fig. 1). 250 μL of sample was injected into the sample loop of the sample injection valve. The valve was switched to the inject position which diverted the flow from the online SPE (solid phase extraction) solvent delivery pump (500 μL/min) through the sample loop which in turned carried the sample onto the online SPE column (3×15mm, ODS-2, 5 μm). After 2 min, the sample extraction valve was switched to inject position. This allowed the mobile phase from the analysis solvent delivery pump (1 mL/min) to wash any material retained by the online SPE system, onto the analytical column (4.6×150mm, ODS-2, 5 μm, Tracer Excell, Technochroma, Spain) for separation and measurement. The mobile phase pumped by online SPE solvent delivery pump consisted of acetonitrile:water (35:65) and the mobile phase pumped by the analysis solvent delivery pump was composed of acetonitrile:methanol:water:triethylamine (37:24:38.5:0.5). 16 min after the start of analysis, the mobile phase pumped by the analysis solvent delivery pump was switched to methanol:tetrahydrofurane:dichloromethane (80:10:10) for 3 min. This allowed for highly non-polar compounds retained by the SPE and analytical column to be flushed. Detection was at 263 nm.
All procedures involving animals were carried out after the approval and under the supervision of the Ethics Committee for Animal Expreiments of Iran University for Medical Sciences. In order to be able to withdraw blood samples at predefined time points during pharmacokinetic studies, femoral vein of male Wistar rats, in the weight range of 280 to 300 g, were catheterized, under anaesthesia, using the method described by Jespersen et al.. After the placement of the catheter, the animals were allowed to recover for 24 h, during which time, the rats were checked for signs of bleeding and the catheters were checked for patency.
Xanthomicrol or calycopterin was dissolved in 200 μL of dimethylsulfoxide (DMSO) and injected into the dorsal tail vein of rats. Just before drug injection (time zero) and at 1, 5, 10, 20, 60, 120 and 240 min after drug injection, 300 μL of blood were withdrawn via the femoral vein which had been catheterized previously. In order to prevent phlebotomy induced hypovolemia, 200 μL normal saline was injected via the femoral catheter after each blood sample withdrawal. Blood samples were centrifuged at 4 °C for 10 min at 4000 g. Plasma was collected and stored frozen at -80 °C until needed.
Pharmacokinetic parameters obtained from constructing the residual concentration verses time curve for these two-compartmental models are presented in Table 3. Rate constants for transfer between the central and peripheral compartments (K21and K12) and also the elimination process (Kel) were also calculated.

[2] = Predicted plasma concentration-time profiles from the two compartment models; settings: rat, single I.V. dose of 30 mg/kg, predicted from two compartment model
Description: Our aim in this work was to find doses of these flavonoids which could produce such plasma levels over extended periods. […] The models generated, were used to predict the plasma concentration-time profiles for different doses of calycopterin and xanthomicrol (Fig. 7). After a single I.V. dose of 30 mg/kg, xanthomicrol plasma concentration would be greater than 500 ng/mL for more than 6 h while calycopterin’s plasma concentration would dip below 500 ng/mL 30 min after administration.
Fig. 7 Predicted plasma calycopterin (●) and xanthomicrol (○) concentration-time profiles after a single IV bolus dose of 30 mg/kg or either compound in the rat. The values were calculated based upon the two compartment models developed in this work

[3] = Solubility in water based solvent systems (vehicle selection); type: physicochemical
Description: A number of solvents which were able to dissolve xanthomicrol and calycopterin were investigated as vehicles for the delivery of these compounds into the blood stream. DMSO was chosen as it is relatively benign in terms of toxicological effects (a number of drug formulations or medical devices containing DMSO are marketed e.g., RIMSO-50 from Bioniche Pharma, USA and Dolicur from Schering, Germany). Also, the volume required as vehicle (200 μL) was small compared to total blood volume in rat (about 20 mL) and would be unlikely to have an appreciable effect on pharmacokinetics of flavonoids being studied.

Balb/C mice [4] = assay: Toxicological study in mice: body weight, mortality, behaviour, overt toxicity; type: in vivo; settings: for toxic effects overall (behavioral, histological, biochemical): repeated administrations at administered doses (30, 40 and 50 mg/kg/day for six days)
Description: (§1) Toxicity studies were carried out using Balb/C mice in the 25-30 g weight range. Drug administration was via the I.P. methoud. Animals were assigned to five groups of three: one-Control groups which received no treatment, two-Vehicle control which received 60 μL of DMSO (dimethyl sulfoxide) for 6 days, 3- Test group one which received 30 mg/kg body weight xanthomicrol in 60 μL of DMSO per day, 4- Test group two which received 40 mg/kg body weight xanthomicrol on 60 μL of DMSO per day and 5- Test group three which received 50 mg/kg body weight xanthomicrol on 60 μL of DMSO per day. The animals were weighed and examined for changes in skin tone, signs of fur loss and changes in bowl function. On the seventh day, the animals were anaesthetized under an atmosphere of chloroform. Once fully anaesthetized, blood samples were collected from the heart and the animals were killed by cervical dislocation. Serum samples were analyzed for hepatic enzymes AST and ALT [16] and also for creatinin levels. Kidneys, liver, lung, intestines and stomach were removed from animals and placed in 10 % formalin solution for subsequent paraffin embedding, sectioning, staining and histological studies. Tissue sections were examined for fibrotic, inflammatory and vascular changes by a qualified pathologist.

Balb/C mice [5] = assay: Toxicological study in mice: tissue histology; type: in vivo
Description: as §1

Balb/C mice [6] = assay: Toxicological study in mice: serum creatinin, ALT, AST (kidney and liver functions); type: in vivo; settings: for Serum ALT / Serum AST / Serum Creatinin: mice, I.P.
Description: as §1

[7] = mice, 30, 40 and 50 mg/kg/day for six days
[8] = Test group 1 (30 mg/kg per day, I.P.), Lung/Liver/Heart/ Kidney, single animal
[9] = Test group 1 (30 mg/kg per day, I.P.), Small intestine/ Large intestine/ Gastric wall, single animals
[10] = Test group 2 (40 mg/kg per day, I.P.), Lung/Liver/Heart/ Kidney, single animals, listed as xanthimcrol, 40 mg/kg/day
[11] = Test group 2 (40 mg/kg per day, I.P.), Small intestine/ Large intestine/ Gastric wall, single animal
[12] = Test group 3 (50 mg/kg per day, I.P.), Lung/Liver/Heart/ Kidney, single animals
[13] = Test group 3 (50 mg/kg per day, I.P.), Lung/Liver/Heart/ Kidney, single animals, listed as xanthimcrol, 50 mg/kg/day
[14] = Test group 3 (50 mg/kg per day, I.P.), Small intestine/ Large intestine/ Gastric wall, single animal
[15] = mice, 30, 40 or 50 mg/kg body weight

volume of distribution of calycopterin relative to xanthomicrol ([1]; i.v.): about 8 times
t1/2 (biological half-life) [1]: 3.8 h
K12 (rate constant of transfer from the peripheral compartment into the central compartment) [1]: 1.39 h⁻¹
K21 (rate constant of transfer from the central compartment into the peripheral compartment) [1]: 0.52 h⁻¹
half-life [1]: ~4 h
C0 [1]: 0.312 µg/mL
clearance [1]: 280 mL/min
k el [1]: 7.22e-05 s⁻¹
Vd [1]: 63.9 L
time after administration at which plasma concentration would dip below 500 ng/mL [2]: 30 min
SMILES: COc1c(OC)c(O)c2c(=O)c(OC)c(-c3ccc(O)cc3)oc2c1OC [Calycopterin, calycopterin]
effect on capillary-like tube formation (HUVEC cell): inhibited capillary-like tube formation
solubility in water based solvent systems [3]: do not dissolve in water based solvent systems

SMILES: COc1c(OC)c(O)c2c(=O)cc(-c3ccc(O)cc3)oc2c1OC [Xanthomicrol, xanthomicrol]
change in animal weights compared to control group (Balb/C mice [4]; [7]): no change in animal weights
motor or behavioral abnormalities (Balb/C mice [4]; [7]): no animal showed any signs of motor or behavioral abnormalities
toxic effects overall (behavioral, histological, biochemical) (Balb/C mice [4]; mice): did not appear to have toxic effects
toxic effects overall (behavioral, histological, biochemical) (Balb/C mice [4]; mice, listed as xanthomicrol): failed to show any behavioral, histological and biochemical adverse effects
weight of animals (Balb/C mice [4]; mice, xanthomicrol groups, control group 27.1 g ± 1.2): 27.7 ± 1.7 g
acute toxic effects (Balb/C mice [4]; mouse, in vivo): appears not to have acute toxic effects
Fibrosin (Balb/C mice [5]; [8]): Absent
Inflammation structural change (Balb/C mice [5]; [8]): Absent
Notes (histology) (Balb/C mice [5]; [8]): Normal
Vascular change (Balb/C mice [5]; [8]): None
Fibrosin (Balb/C mice [5]; [9]): Absent
Inflammation structural change (Balb/C mice [5]; [9]): Absent
Notes (histology) (Balb/C mice [5]; [9]): Normal
Vascular change (Balb/C mice [5]; [9]): None
Fibrosin (Balb/C mice [5]; Test group 2 (40 mg/kg per day, I.P.), Lung/Liver/Heart/ Kidney, single animals): Absent
Inflammation structural change (Balb/C mice [5]; [10]): Lymphocyte infilteration in lung sample, Subcapsular inflammation in liver sample; also recorded: Focal inflammation in lung tissue
Notes (histology) (Balb/C mice [5]; [10]): Normal; also recorded: Increased type II pneumocytes
Vascular change (Balb/C mice [5]; [10]): Hypermic; also recorded: Increased vascularization in lung sample
Fibrosin (Balb/C mice [5]; [11]): Absent
Inflammation structural change (Balb/C mice [5]; [11]): Absent
Notes (histology) (Balb/C mice [5]; [11]): Normal
Vascular change (Balb/C mice [5]; [11]): None
Fibrosin (Balb/C mice [5]; [12]): Absent
Vascular change (Balb/C mice [5]; [12]): None
Inflammation structural change (Balb/C mice [5]; [13]): Focal inflammation in lung sample; also recorded: Absent
Notes (histology) (Balb/C mice [5]; [13]): Increased type II pneumocytes; also recorded: Normal
Fibrosin (Balb/C mice [5]; [14]): Absent
Inflammation structural change (Balb/C mice [5]; [14]): Absent
Vascular change (Balb/C mice [5]; [14]): None
Histological examination of tissue samples compared to the control group (Balb/C mice [5]; [7]): absence of significant pathological change; also recorded: unable to find xenobiotic induced damage to vital organs
effect on capillary-like tube formation (HUVEC cell): inhibited capillary-like tube formation
t1/2 (biological half-life) [1]: 4.2 h
K12 (rate constant of transfer from the peripheral compartment into the central compartment) [1]: 1.88 h⁻¹
K21 (rate constant of transfer from the central compartment into the peripheral compartment) [1]: 0.46 h⁻¹
half-life [1]: ~4 h
C0 [1]: 2.35 µg/mL
clearance [1]: 30 mL/min
k el [1]: 5.83e-05 s⁻¹
Vd [1]: 8.5 L
time for which plasma concentration would be greater than 500 ng/mL [2]: more than 6 h
solubility in water based solvent systems [3]: do not dissolve in water based solvent systems
difference in alanine transaminase (ALT) activity between control, vehicle and test groups (Balb/C mice [6]; [15]): no significant differences
difference in aspartic acid transaminase (AST) activity between control, vehicle and test groups (Balb/C mice [6]; [15]): no significant differences; also recorded: not significantly different
difference in serum creatinin content between control, vehicle and test groups (Balb/C mice [6]; [15]): no significant differences
Serum ALT (Balb/C mice [6]; 30 mg/kg per day for 6 days): 38 ± 8.8 IU/L
Serum AST (Balb/C mice [6]; 30 mg/kg per day for 6 days): 138 ± 37 IU/L
Serum ALT (Balb/C mice [6]; 40 mg/kg per day for 6 days): 22 ± 19 IU/L
Serum AST (Balb/C mice [6]; 40 mg/kg per day for 6 days): 130 ± 49 IU/L
Serum Creatinin (Balb/C mice [6]; 40 mg/kg per day for 6 days): 0.35 ± 0.036 mg/dL
Serum ALT (Balb/C mice [6]; 50 mg/kg per day for 6 days): 30 ± 3.0 IU/L
Serum AST (Balb/C mice [6]; 50 mg/kg per day for 6 days): 316 ± 163 IU/L
Serum Creatinin (Balb/C mice [6]; 50 mg/kg per day for 6 days): 0.39 ± 0.02 mg/dL
